{"source": "patent US10370364B1", "about": "“Substituted chromenes for treatment of fibrosis or non-alcoholic steatohepatitis” (OSTEONEUROGEN INC., priority 2018, dated 2019)", "key": {"[1]": {"assay": "Solubility in phosphate buffer (pH 7.4)", "settings": "phosphate buffer pH 7.4, 1 mg/ml added, 16 hours, HPLC-UV", "method": "The compound of the present invention was added to phosphate buffer (pH 7.4) at a concentration of 1 mg/ml and stirred. After 16 hours, the sample was filtered through a filter, and the supernatant was analyzed by HPLC-UV, thereby determining the content of compound dissolved."}, "[2]": {"assay": "Concentration of compound in plasma and lung of bleomycin fibrotic mice", "type": "in vivo", "settings": "1 hour after final administration; pirfenidone 100 mpk, Compound 1 10-100 mpk PO", "method": "The amounts of the compound present in the plasma and lung of each of the sacrificed mice (finally administered with each compound at 1 hour before sacrifice) were measured. […] If it is attempted to formulate the compound of the present invention in various manners, it is expected that the compound of the present invention can effectively treat fibrosis even at lower concentrations."}, "[3]": {"tested_on": "C57BL/6 mice", "assay": "Bleomycin-induced pulmonary fibrosis animal model", "type": "in vivo", "from_the_text": "5-week-old male C57BL/6 mice (weighed 18.2 to 20.5 g) (KOATECH, Korea) were used as experimental animals and divided into several groups, each consisting of 5 animals.\nThe experimental animals were housed in a housing box having a size of 369 L×156 W×132H (mm) (EU, USA, UK GL compliance) made of a polysulfone material in a SPF (Specific Pathogen Free) and BSL (Bio Safety Level) 2 grade facility. The number of animals in each housing box was 2 to 3 during the period of quarantine and acclimatization and was also 2 to 3 during the experimental period, and the housing conditions were set to a temperature of 22±2° C., a relative humidity of 50.0±15.0%, a ventilation cycle of 10 to 20 times/hr, a light-dark cycle (a photoperiod) of 12 hr/day (07:00 to 19:00), and an illumination intensity of 150 to 300 Lux.\nPulmonary fibrosis was induced by injecting a bleomycin solution directly into the lungs via the trachea according to the intratracheal instillation (IT) method of Kremer, Laxer and Berkman et al. Specifically, C57BL/6J mice were anesthetized through inhalation with 70% N2O and 30% O2 gas and 1.5% isoflurane, and the skin of the anterior neck thereof was excised and the organs under the muscle thereof were exposed and then carefully excised using ophthalmic surgical scissors. 50 μL of a solution of bleomycin in distilled water was injected directly into the lungs all at once via the excised organ by use of a 1 mL syringe fitted with a 19-gauge injection needle having a blunt tip. Immediately after the injection, the excised skin of the anterior neck was sutured and the mice were allowed to recover from the anesthetic, and then housed in a general housing cage. The administration of bleomycin was performed using a visual instillobot, and bleomycin-HCl 40 μg/50 μL was administered once and a pulmonary fibrosis induction period of 12 days was set.\nThe compound of the present invention was used after dissolution in 30% HPCD aqueous solution (Formulation Example 5), and the dose for each individual was calculated based on the recent body weight thereof. 12 Days after the administration of bleomycin, the compound of the present invention was administered once a day (5 times a week) for 2 weeks. As a control, pirfenidone which is a therapeutic agent for idiopathic pulmonary fibrosis was administered in the same manner.\nOn 15 days after administration of the compound, the mice were sacrificed, and then the right lung of each mouse was dissected and the weight thereof was measured. […] In particular, it is noted that the inhibitory effect of the compound in the group administered at 10 mpk was the highest compared to that in the group administered at 50 or 100 mpk and was also higher than that in the group administered with pirfenidone 100 mpk.\nThe amounts of hydroxyproline (HP) and collagen in the dissected right lung were measured using a known method.\nHistopathology collagen morphometry of the dissected left lung tissue was performed using a known method (calculating the area of collagen in an optical image obtained by Sirius red staining of the lung tissue sample).\nThe pathological conditions of the left lung tissue dissected using a known method were examined by H&E and Sirius Red staining. […] In particular, it is noted that the inhibitory effect of the compound in the group administered at 10 mpk was the highest compared to that in the groups administered at other concentrations.\nIn order to examine the effect of each treatment in this Experiment on the liver, the liver of each of the sacrificed mice was dissected, and the pathological conditions of the liver tissue were examined by H&E staining."}, "[4]": {"tested_on": "STAM mice", "assay": "Non-alcoholic steatohepatitis animal model (STAM mice), NAFLD activity score", "type": "in vivo", "settings": "30 mpk oral", "method": "STAM mice (SMC Laboratories, Inc., Japan), which are non-alcoholic steatohepatitis animal models, were used as experimental animals. These animal models were administered with streptozotocin immediately after birth, and fed with high-fat-diet after 3 weeks. Then, in the mouse model, non-alcoholic steatohepatitis occurred at 6 to 9 weeks, and liver fibrosis, cirrhosis and liver cancer occurred within 9 to 12 weeks.\nOver 6 to 9 weeks after administration of streptozotocin, the compound of the present invention, dissolved in a mixture solution of Tween80 and 0.5% CMC aqueous solution (1:99 (v/v)) (Formulation Example 2), was orally administered to the animal models once a day (five times a week). As controls, telmisartan and OCA (obeticholic acid) were administered in the same manner.\nAt […] after administration of streptozotocin (a time point after 3-week administration of the compound), the mice were sacrificed, the liver of each mouse was dissected, the invasion of inflammatory cells was observed by […] of the liver tissue, and fibrosis of the liver tissue was observed by Sirius Red staining (see FIG. 42). In addition, the degrees of inflammation, fibrosis, liver cell ballooning and adipose accumulation observed were measured, data integration was performed, and the NAFLD (nonalcoholic fatty liver disease) activity score was statistically processed by t-test."}}}
{"smiles": "CC/C(=C(/CC)c1ccc(O)cc1)c1ccc(O)cc1", "note": "[Diethyl stilbesterol, reference compound]", "values": [{"measurement": "Solubility", "setting": "[1]", "value": 4.50, "unit": "µg/mL"}]}
{"smiles": "Cc1ccc(=O)n(-c2ccccc2)c1", "note": "[Pirfenidone, reference compound]", "values": [{"measurement": "concentration of the compound in the lung", "setting": "[2]", "value": "high"}, {"measurement": "concentration of the compound in the plasma", "setting": "[2]", "value": "high"}, {"measurement": "Protection Collagen %", "setting": "[3]; 100 mpk PO", "value": 34, "unit": "%"}, {"measurement": "Mean Collagen % (histopathology collagen morphometry, left lung)", "setting": "[3]; 100 mpk PO, Sirius red", "value": 4.1, "unit": "%"}, {"measurement": "pathological condition of liver tissue, H&E staining", "setting": "[3]; bleomycin mice, 100 mpk", "value": "showed hepatotoxic symptoms"}]}
{"smiles": "CCCc1nc2c(C)cc(-c3nc4ccccc4n3C)cc2n1Cc1ccc(-c2ccccc2C(=O)O)cc1", "note": "[telmisartan, reference compound]", "values": [{"measurement": "NAFLD activity score (t-test)", "setting": "[4]", "value": "statistically significant anti-NASH effects"}]}
